# According to PubChem BioAssay (NCI):
#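 Compound exposure: 48 hours, 5 concentrations, 96-well plates. Here, GI50 denotes the concentration required for 50% inhibition of growth. TGI denotes the concentration required for complete inhibition of growth.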
# How the values were obtained:
# Experiment in all cases: inhibition of tumour cell growth, NCI panel, 48 h
# SN12C renal = tested on: SN12C renal
# OVCAR-5 ovarian = tested on: OVCAR-5 ovarian
# IGROV1 ovarian = tested on: IGROV1 ovarian
# SK-MEL-2 melanoma = tested on: SK-MEL-2 melanoma
# OVCAR-8 ovarian = tested on: OVCAR-8 ovarian
# NCI-H522 lung = tested on: NCI-H522 lung
# NCI-H226 lung = tested on: NCI-H226 lung
# ACHN renal = tested on: ACHN renal
# M14 melanoma = tested on: M14 melanoma
# U251 CNS = tested on: U251 CNS
# HCC-2998 colon = tested on: HCC-2998 colon
# A549 NSCLC = tested on: A549 NSCLC
# MDA-MB-231 breast = tested on: MDA-MB-231 breast
# MDA-MB-435 = tested on: MDA-MB-435
# EKVX NSCLC = tested on: EKVX NSCLC
# SW-620 colon = tested on: SW-620 colon
# CAKI-1 renal = tested on: CAKI-1 renal
# BT-549 breast = tested on: BT-549 breast
# HCT-15 colon = tested on: HCT-15 colon
# PC-3 prostate = tested on: PC-3 prostate
# SF-295 CNS = tested on: SF-295 CNS
# OVCAR-4 ovarian = tested on: OVCAR-4 ovarian
# TK-10 renal = tested on: TK-10 renal
# HL-60(TB) leukemia = tested on: HL-60(TB) leukemia
# NCI-H460 lung = tested on: NCI-H460 lung
# MALME-3M melanoma = tested on: MALME-3M melanoma
# UACC-257 melanoma = tested on: UACC-257 melanoma
# HCT-116 colon = tested on: HCT-116 colon
# RXF 393 renal = tested on: RXF 393 renal
# HOP-62 NSCLC = tested on: HOP-62 NSCLC
# HS 578T breast = tested on: HS 578T breast
# 786-0 renal = tested on: 786-0 renal
# OVCAR-3 ovarian = tested on: OVCAR-3 ovarian
# KM12 colon = tested on: KM12 colon
# DU-145 prostate = tested on: DU-145 prostate
# COLO 205 colon = tested on: COLO 205 colon
# MOLT-4 leukemia = tested on: MOLT-4 leukemia
# NCI-H23 lung = tested on: NCI-H23 lung
# T-47D breast = tested on: T-47D breast
# SK-MEL-5 melanoma = tested on: SK-MEL-5 melanoma
# SK-OV-3 ovarian = tested on: SK-OV-3 ovarian
# SF-539 CNS = tested on: SF-539 CNS
# SNB-19 CNS = tested on: SNB-19 CNS
# UACC-62 melanoma = tested on: UACC-62 melanoma
# MCF7 breast = tested on: MCF7 breast
# UO-31 renal = tested on: UO-31 renal
# A498 renal = tested on: A498 renal
# K-562 leukemia = tested on: K-562 leukemia
# NCI/ADR-RES ovarian = tested on: NCI/ADR-RES ovarian
# HT29 colon = tested on: HT29 colon
# LOX IMVI melanoma = tested on: LOX IMVI melanoma
# SF-268 CNS = tested on: SF-268 CNS
# SR leukemia = tested on: SR leukemia
# CCRF-CEM leukemia = tested on: CCRF-CEM leukemia
# SNB-75 CNS = tested on: SNB-75 CNS
# SK-MEL-28 melanoma = tested on: SK-MEL-28 melanoma
compound,measurement,setting,value
ClCCn1cnc2c(SCc3ccccc3Cl)ncnc21,GI50,SN12C renal,1.26 µM
same,TGI,SN12C renal,> 100 µM
same,GI50,OVCAR-5 ovarian,37.8 µM
same,TGI,OVCAR-5 ovarian,> 100 µM
same,GI50,IGROV1 ovarian,0.51 µM
same,TGI,IGROV1 ovarian,> 41.6 µM
same,GI50,SK-MEL-2 melanoma,12.7 µM
same,TGI,SK-MEL-2 melanoma,54.4 µM
same,GI50,OVCAR-8 ovarian,0.576 µM
same,TGI,OVCAR-8 ovarian,> 90.5 µM
same,GI50,NCI-H522 lung,2.64 µM
same,TGI,NCI-H522 lung,> 71.1 µM
same,GI50,NCI-H226 lung,3.52 µM
same,TGI,NCI-H226 lung,59.9 µM
same,GI50,ACHN renal,0.51 µM
same,TGI,ACHN renal,> 100 µM
same,GI50,M14 melanoma,7.5 µM
same,TGI,M14 melanoma,> 76.6 µM
same,GI50,U251 CNS,0.0925 µM
same,TGI,U251 CNS,> 89.8 µM
same,GI50,HCC-2998 colon,1.75 µM
same,GI50,A549 NSCLC,0.278 µM
same,TGI,A549 NSCLC,> 39.6 µM
same,GI50,MDA-MB-231 breast,5.77 µM
same,TGI,MDA-MB-231 breast,> 100 µM
same,GI50,MDA-MB-435,0.779 µM
same,TGI,MDA-MB-435,50.7 µM
same,GI50,EKVX NSCLC,13.8 µM
same,TGI,EKVX NSCLC,> 78 µM
same,GI50,SW-620 colon,0.511 µM
same,TGI,SW-620 colon,> 100 µM
same,GI50,CAKI-1 renal,0.272 µM
same,TGI,CAKI-1 renal,24.7 µM
same,GI50,BT-549 breast,8.79 µM
same,TGI,BT-549 breast,53.6 µM
same,GI50,HCT-15 colon,0.0383 µM
same,TGI,HCT-15 colon,> 100 µM
same,GI50,PC-3 prostate,0.717 µM
same,TGI,PC-3 prostate,46.6 µM
same,GI50,SF-295 CNS,0.184 µM
same,TGI,SF-295 CNS,20.2 µM
same,GI50,OVCAR-4 ovarian,14.4 µM
same,TGI,OVCAR-4 ovarian,> 100 µM
same,GI50,TK-10 renal,5.44 µM
same,TGI,TK-10 renal,> 83.1 µM
same,GI50,HL-60(TB) leukemia,0.416 µM
same,TGI,HL-60(TB) leukemia,8.94 µM
same,GI50,NCI-H460 lung,0.0533 µM
same,TGI,NCI-H460 lung,16.4 µM
same,GI50,MALME-3M melanoma,14.2 µM
same,TGI,MALME-3M melanoma,45.4 µM
same,GI50,UACC-257 melanoma,2.64 µM
same,GI50,HCT-116 colon,0.0679 µM
same,TGI,HCT-116 colon,21 µM
same,GI50,RXF 393 renal,1.35 µM
same,TGI,RXF 393 renal,26.4 µM
same,GI50,HOP-62 NSCLC,2.56 µM
same,TGI,HOP-62 NSCLC,> 100 µM
same,GI50,HS 578T breast,19.4 µM
same,TGI,HS 578T breast,89 µM
same,GI50,786-0 renal,0.671 µM
same,TGI,786-0 renal,20.4 µM
same,GI50,OVCAR-3 ovarian,9.31 µM
same,TGI,OVCAR-3 ovarian,29.8 µM
same,GI50,KM12 colon,0.789 µM
same,TGI,KM12 colon,46.6 µM
same,GI50,DU-145 prostate,0.754 µM
same,TGI,DU-145 prostate,25 µM
same,GI50,COLO 205 colon,2.01 µM
same,TGI,COLO 205 colon,> 100 µM
same,GI50,MOLT-4 leukemia,0.176 µM
same,TGI,MOLT-4 leukemia,9.4 µM
same,GI50,NCI-H23 lung,9.69 µM
same,TGI,NCI-H23 lung,> 73.7 µM
same,GI50,T-47D breast,13.7 µM
same,TGI,T-47D breast,79.5 µM
same,GI50,SK-MEL-5 melanoma,0.272 µM
same,TGI,SK-MEL-5 melanoma,43.3 µM
same,GI50,SK-OV-3 ovarian,9.72 µM
same,TGI,SK-OV-3 ovarian,> 100 µM
same,GI50,SF-539 CNS,0.267 µM
same,TGI,SF-539 CNS,68.8 µM
same,GI50,SNB-19 CNS,1.98 µM
same,TGI,SNB-19 CNS,> 100 µM
same,GI50,UACC-62 melanoma,0.529 µM
same,TGI,UACC-62 melanoma,> 48.1 µM
same,GI50,MCF7 breast,0.446 µM
same,TGI,MCF7 breast,> 100 µM
same,GI50,UO-31 renal,0.883 µM
same,TGI,UO-31 renal,41.8 µM
same,GI50,A498 renal,24.5 µM
same,TGI,A498 renal,> 93 µM
same,GI50,K-562 leukemia,0.0755 µM
same,TGI,K-562 leukemia,> 59.1 µM
same,GI50,NCI/ADR-RES ovarian,1.2 µM
same,TGI,NCI/ADR-RES ovarian,> 52.5 µM
same,GI50,HT29 colon,0.191 µM
same,TGI,HT29 colon,> 100 µM
same,GI50,LOX IMVI melanoma,0.0756 µM
same,TGI,LOX IMVI melanoma,11.9 µM
same,GI50,SF-268 CNS,4.87 µM
same,TGI,SF-268 CNS,> 84.7 µM
same,GI50,SR leukemia,0.0609 µM
same,TGI,SR leukemia,13.1 µM
same,GI50,CCRF-CEM leukemia,2 µM
same,TGI,CCRF-CEM leukemia,36.5 µM
same,GI50,SNB-75 CNS,6.69 µM
same,TGI,SNB-75 CNS,> 63.2 µM
same,GI50,SK-MEL-28 melanoma,5.3 µM
same,TGI,SK-MEL-28 melanoma,> 83.8 µM
